US20110301200A1, “THYROID RECEPTOR LIGANDS” (CADILA HEALTHCARE LIMITED, priority 2008, published 2011)

Legend:
[1] = molecular target: T1, TR-β (Homo sapiens, UniProt P10828); test: In vitro TR-β activity (in-house protocol); type: cell-based; conditions: for fold induction at 0.001 µM: Conc. 1 nM; for fold induction at 0.001 µM / fold induction at 0.01 µM / fold induction at 0.1 µM / fold induction at 1 µM: read-out: TR-β Fold Induction w.r.t T3(100 nm); for fold induction at 0.01 µM: Conc. 10 nM; for fold induction at 0.1 µM: Conc. 100 nM; for fold induction at 1 µM: Conc. 1000 nM
T1 sequence (P10828 1-461): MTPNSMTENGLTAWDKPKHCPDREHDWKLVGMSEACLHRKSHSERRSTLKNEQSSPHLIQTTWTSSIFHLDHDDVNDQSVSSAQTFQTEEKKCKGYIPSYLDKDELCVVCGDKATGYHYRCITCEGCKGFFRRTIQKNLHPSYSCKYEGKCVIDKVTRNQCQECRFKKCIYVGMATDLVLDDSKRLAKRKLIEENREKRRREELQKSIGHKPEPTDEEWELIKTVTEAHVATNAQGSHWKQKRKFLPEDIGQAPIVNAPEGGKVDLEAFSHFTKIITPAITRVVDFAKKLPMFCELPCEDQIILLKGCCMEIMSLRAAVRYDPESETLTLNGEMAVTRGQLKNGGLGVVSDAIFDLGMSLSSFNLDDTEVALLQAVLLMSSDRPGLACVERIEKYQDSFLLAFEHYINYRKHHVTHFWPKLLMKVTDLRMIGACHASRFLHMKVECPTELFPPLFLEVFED
Method: (§1) In vitro TR-α & TR-β activities were determined as per in-house protocols and the results of representative compounds are provided in tables 1 & 2 below as a proof of the efficacies of the novel class of compounds disclosed above.

[2] = molecular target: T2, TR-α (Homo sapiens, UniProt P10827); test: In vitro TR-α activity (in-house protocol); type: cell-based; conditions: for fold induction at 0.001 µM: Conc. 1 nM; for fold induction at 0.001 µM / fold induction at 0.01 µM / fold induction at 0.1 µM / fold induction at 1 µM: read-out: TR-α Fold Induction w.r.t T3(100 nm); for fold induction at 0.01 µM: Conc. 10 nM; for fold induction at 0.1 µM: Conc. 100 nM; for fold induction at 1 µM: Conc. 1000 nM
T2 sequence (P10827 1-410 isoform P10827-2): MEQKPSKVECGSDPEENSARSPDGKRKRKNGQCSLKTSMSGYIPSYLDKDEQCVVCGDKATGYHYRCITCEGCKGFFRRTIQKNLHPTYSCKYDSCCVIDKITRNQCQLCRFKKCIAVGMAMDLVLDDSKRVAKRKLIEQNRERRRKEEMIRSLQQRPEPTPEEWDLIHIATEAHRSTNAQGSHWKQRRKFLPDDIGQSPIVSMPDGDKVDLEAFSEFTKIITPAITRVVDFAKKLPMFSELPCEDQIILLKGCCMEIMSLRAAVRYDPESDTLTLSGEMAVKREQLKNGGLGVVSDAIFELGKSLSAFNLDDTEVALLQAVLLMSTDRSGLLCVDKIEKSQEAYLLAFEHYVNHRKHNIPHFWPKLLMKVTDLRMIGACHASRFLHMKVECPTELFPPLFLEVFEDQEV
Method: as §1

Row | fold induction at 0.001 µM [1] | fold induction at 0.01 µM [1] | fold induction at 0.1 µM [1] | fold induction at 1 µM [1] | fold induction at 0.001 µM [2] | fold induction at 0.01 µM [2] | fold induction at 0.1 µM [2] | fold induction at 1 µM [2] | EC50 [1] | EC50 [2] | SMILES
1 | 7.72 | 20.6 | 52.6 | 53.4 | 11.8 | 25.7 | 73.5 | 99 |  |  | CC(C)c1cc(Oc2c(Cl)cc(C=NOCC(=O)O)cc2Cl)ccc1O [Example 1, 2-(((3,5-dichloro-4-(4-hydroxy-3-isopropylphenoxy)benzylidene)amino)oxy)acetic acid]
2 | 10.6 | 12.1 | 33.5 | 68.5 | 17.6 | 21.2 | 29.9 | 64.2 |  |  | O=C(O)CON=Cc1cc(Br)c(Oc2ccc(O)c(C(O)c3ccc(Cl)cc3)c2)c(Br)c1 (centres unmarked) [Example 29, 2-(((3,5-dibromo-4-(3-((4-chlorophenyl)(hydroxy)methyl)-4-hydroxyphenoxy)benzylidene)amino)oxy)acetic acid]
3 | 10.9 | 9.74 | 21.4 | 47.5 | 14.1 | 11.8 | 17.9 | 39.8 |  |  | CC(ON=Cc1cc(Br)c(Oc2ccc(O)c(C(O)c3cccc(Cl)c3)c2)c(Br)c1)C(=O)O (centres unmarked) [Example 34, 2-(((3,5-dibromo-4-(3-((3-chlorophenyl)(hydroxy)methyl)-4-hydroxyphenoxy)benzylidene)amino)oxy)propanoic acid]
4 | 12.9 | 18.2 | 51.6 | 63.8 | 12.8 | 16.6 | 50.4 | 105 |  |  | CCC(ON=Cc1cc(Br)c(Oc2ccc(O)c(-c3ccccc3)c2)c(Br)c1)C(=O)O (centres unmarked) [Example 21, 2-(((3,5-dibromo-4-((6-hydroxy-[1,1′-biphenyl]-3-yl)oxy)benzylidene)amino)oxy)butanoic acid]
5 | 14.8 | 12 | 43.6 | 80.5 | 14.2 | 10.8 | 28.3 | 57 |  |  | O=C(O)CON=Cc1cc(Cl)c(Oc2ccc(O)c(Cc3ccccc3)c2)c(Cl)c1 [Example 5, 2-(((4-(3-benzyl-4-hydroxyphenoxy)-3,5-dichlorobenzylidene)amino)oxy)acetic acid]
6 | 11.5 | 37.1 | 59.9 | 86.7 | 13.8 | 28.5 | 79 | 134 |  |  | CCc1cc(Oc2c(Br)cc(C=NOC(C)C(=O)O)cc2Br)ccc1O (centres unmarked) [Example 25, 2-(((3,5-dibromo-4-(3-ethyl-4-hydroxyphenoxy)benzylidene)amino)oxy)propanoic acid]
7 | 14 | 30.1 | 72.5 | 62.1 | 18.7 | 32.2 | 52.1 | 74 |  |  | O=C(O)CON=Cc1cc(Br)c(Oc2ccc(O)c(C(=O)c3cccc(Cl)c3)c2)c(Br)c1 [Example 33, 2-(((3,5-dibromo-4-(3-(3-chlorobenzoyl)-4-hydroxyphenoxy)benzylidene)amino)oxy)acetic acid]
8 | 19.2 | 53.1 | 78.9 | 90 | 22.6 | 48.2 | 92.2 | 138 |  |  | CCC(C)c1cc(Oc2c(Cl)cc(C=NOC(C)C(=O)O)cc2Cl)ccc1O (centres unmarked) [Example 23, 2-(((4-(3-(sec-butyl)-4-hydroxyphenoxy)-3,5-dichlorobenzylidene)amino)oxy)propanoic acid]
9 | 10.1 | 9.01 | 10.9 | 36.5 | 10.7 | 9.07 | 10.1 | 16.7 |  |  | CC(ON=Cc1cc(Br)c(Oc2ccc(O)c(S(=O)(=O)N[C@@H]3C[C@H]4CC[C@@H]3C4)c2)c(Br)c1)C(=O)O (stereo partly drawn) [Example 40, 2-(((4-(3-(N-((1R,2R,4S)-bicyclo[2.2.1]heptan-2-yl)sulfamoyl)-4-hydroxyphenoxy)-3,5-dibromobenzylidene)amino)oxy)propanoic acid]
10 | 23 | 84.3 | 118 | 72.3 | 35.7 | 77.7 | 119 | 123 |  |  | CCC(C)c1cc(Oc2c(Br)cc(C=NOC(C)(C)C(=O)O)cc2Br)ccc1O (centres unmarked) [Example 15, 2-(((3,5-dibromo-4-(3-(sec-butyl)-4-hydroxyphenoxy)benzylidene)amino)oxy)-2-methyl propanoic acid]
11 | 11.8 | 13.6 | 25 | 82.2 | 10.1 | 16.4 | 25.3 | 76.2 |  |  | CCN(CC)S(=O)(=O)c1cc(Oc2c(Br)cc(C=NOC(C)C(=O)O)cc2Br)ccc1O (centres unmarked) [Example 38, 2-(((3,5-dibromo-4-(3-(N,N-diethylsulfamoyl)-4-hydroxyphenoxy)benzylidene)amino)oxy)propanoic acid]
12 | 20.2 | 69.7 | 86.2 | 90.8 | 34.4 | 80.8 | 64.2 | 109 |  |  | CCC(ON=Cc1cc(Br)c(Oc2ccc(O)c(C(C)CC)c2)c(Br)c1)C(=O)O (centres unmarked) [Example 19, 2-(((3,5-dibromo-4-(3-(sec-butyl)-4-hydroxyphenoxy)benzylidene)amino)oxy)butanoic acid]
13 | 10.2 | 26.4 | 61.7 | 58.9 | 16.2 | 25 | 40.4 | 54.5 |  |  | O=C(O)CON=Cc1cc(Br)c(Oc2ccc(O)c(C(=O)c3ccc(Cl)cc3)c2)c(Br)c1 [Example 28, 2-(((3,5-dibromo-4-(3-(4-chlorobenzoyl)-4-hydroxyphenoxy)benzylidene)amino)oxy)acetic acid]
14 | 21.2 | 31.3 | 81.5 | 85.6 | 21.6 | 38.5 | 66.2 | 109 |  |  | CCC(ON=Cc1cc(Br)c(Oc2ccc(O)c(Cc3ccccc3)c2)c(Br)c1)C(=O)O (centres unmarked) [Example 17, 2-(((4-(3-benzyl-4-hydroxyphenoxy)-3,5-dibromobenzylidene)amino)oxy)butanoic acid]
15 |  |  |  |  |  |  |  |  | 4.9 µM | 2.1 µM | O=C(O)CON=Cc1cc(Br)c(Oc2ccc(O)c(C(O)c3cccc(Cl)c3)c2)c(Br)c1 (centres unmarked) [Example 35, 2-(((3,5-dibromo-4-(3-((3-chlorophenyl)(hydroxy)methyl)-4-hydroxyphenoxy)benzylidene)amino)oxy)acetic acid]
16 | 16.3 | 45.4 | 85.2 | 89 | 12.4 | 29.5 | 75 | 76.6 |  |  | CC(ON=Cc1cc(Cl)c(Oc2ccc(O)c(C(C)C)c2)c(Cl)c1)C(=O)O (centres unmarked) [Example 8, 2-(((3,5-dichloro-4-(4-hydroxy-3-isopropylphenoxy)benzylidene)amino)oxy)propanoic acid]
